Test results as given in patent publication US5684017A, “Benzenesulfonylimine derivatives as inhibitors of IL-1 action” (Merrell Pharmaceuticals Inc., priority 1996, dated 1997).

How the values were obtained:
[1] = Interleukin-1-Beta-Induced Tumor Necrosis Factor Alpha Release by Human Macrophages; assay type: cell-based; conditions: Macrophage; recombinant human IL-1β 20 ng/mL; compound 1 h before stimulation; supernatants after 24 h, ELISA; read-out: IC50 (IL-1β-induced TNFα release)
Protocol: (§1) The compounds of Formula I inhibit IL-1 action. One mechanism for inhibiting IL-1 action is to inhibit IL-1 production. Inhibition of IL-1 production was tested using lipopolysaccharide (LPS) stimulated macrophages. Inhibition of IL-1 induced production of cytokines was tested by measuring the inhibition of TNFα (tumor necrosis factor alpha) synthesis from IL-1 stimulated macrophages. The protocols for these test procedures are described below.
Interleukin-1-Beta-Induced Tumor Necrosis Factor Alpha Release by Human Macrophages
To determine the inhibitory concentrations for the test compounds against interleukin-1 beta (IL-1β)-induced tumor necrosis factor alpha (TNFα) release by human peripheral blood monocyte-derived macrophages. It should be understood that this is a test of the ability of the test compounds to modulate, i.e. inhibit, the activity of IL-1β by measuring the inhibition of IL-1β induced release of TNFα.
Source Human Peripheral Blood Monocyte-Derived Macrophages:
(§2) Venous blood is collected form healthy volunteers in 10 mM sodium citrate (2 mL sterile sodium citrate for 40 mL blood). Mononuclear cells are isolated with the Leucoprep tubes (Becton Dickinson, product number 2752 or 2751) spun at 1500 g for fifteen minutes. Aliquots of 3×10^6 mononuclear cells are added to 24-well tissue culture plates (Corning) in RPMI-1640. After 1 hour incubation at 37° C., non-adherent cells are gently rinsed off. The adherent cells (macrophages) are given back fresh medium RPMI-1640, 1 mL/well.
Macrophage monolayer cultures are pretreated with compounds one hour prior to IL-1β (20 ng/mL, recombinant human IL-1β) stimulation. Compounds dissolved in 95% ethanol or DMSO would require additional monolayer cultures treated with 10 or 2.5 μl 95% ethanol or DMSO, respectively. Culture supernatants are collected 24 hours later and are tested for TNF-α using a commercial ELISA kit (Cistron).
The TNF-α concentration in the culture supernatant is calculated by a standard curve generated from a series of known concentrations. Potency of compound is reported in IC50 (UM).

[2] = system: interleukin-1 beta (IL-1β) release (production) by human peripheral blood monocyte-derived macrophages; test: Endotoxin-Induced Interleukin-1 Beta Release by Human Macrophages; assay type: cell-based; conditions: Macrophage, endotoxin 20 ng/mL (Salmonella typhimurium Re-mutant), compound 1 h before stimulation, supernatants after 24 h, ELISA
Protocol: as §1
Endotoxin-Induced Interleukin-1 Beta Release by Human Macrophages
The objective of this test is to determine the inhibitory concentrations for the test compounds against endotoxin-induced interleukin-1 beta (IL-1β) release (production) by human peripheral blood monocyte-derived macrophages.
The source of the human peripheral blood monocyte-derived macrophages is as follows:
as §2, with “collected from” for “collected form”, “(Becton Dickenson,” for “(Becton Dickinson,”, “for 15” for “for fifteen”, “After one” for “After 1”, “off. […]” for “off. The adherent cells (macrophages) are given back fresh medium RPMI-1640, 1 mL/well.”
The IL-1β concentration in the culture supernatant is calculated by a standard curve generated from a series of known concentrations. […]

[3] = mammal having an arthritic condition; U.S. Pat. No. 5,122,534; cited from earlier work
IL-1 production = conditions: cited from earlier work

Row | SMILES | IC50 [1] | IC50 [2] | serum LDL cholesterol [3] | serum triglycerides [3] | total level of serum cholesterol [3] | block IL-1 production (IL-1 production)
1 | O=C(c1ccccc1)c1cc(=NS(=O)(=O)c2ccccc2)c2ccccc2o1 [2-Benzoyl-4-benzenesulfonylimino-4H-chromene] | 1300 nM |  |  |  |  | 
2 | CC(=O)c1cc(=NS(=O)(=O)c2ccccc2)c2c(Cl)cc(Cl)cc2[nH]1 [5,7-Dichloro-2-acetyl-4-[benzenesulfonylimino]-1,4-dihydroquinoline] | 8000 nM | 4000 nM |  |  |  | 
3 | O=C(c1ccccc1)c1cc(=NS(=O)(=O)c2ccccc2)c2c(Cl)cc(Cl)cc2[nH]1 [5,7-Dichloro-2-benzoyl-4-[benzenesulfonylimino]-1,4-dihydroquinoline] | 3000 nM | 2000 nM |  |  |  | 
4 | NC(=O)N1C(=O)/C(=C(\O)c2cccs2)c2cc(Cl)ccc21 [Tenidap] |  |  | reduces | reduces | reduces | known to block IL-1 production
